Reference: publication PMC6100044 (Molecules : A Journal of Synthetic Chemistry and Natural …, 2018)
Like-named read-outs stand apart in the source and are kept apart here.

What was measured:
[1] = tested on: Plasmodium falciparum (Pf) W2; details: Pf W2 in vitro; cited from earlier work
[2] = tested on: Plasmodium falciparum (Pf) D6; details: Pf D6 in vitro; cited from earlier work
[3] = tested on: P. falciparum CQ-resistant W-2; assay: In vitro antimalarial assay (pLDH), Pf W-2 strain; assay type: cell-based, Plasmodium falciparum; details: for IC50: 72 h, read-out: W-2 (CQ-R) Mean ± S.D. IC50; for Ratio IC50 cpd/IC50 DHA: W-2 strain; for SI IC50WEHI-164/IC50 cpd: selectivity index versus W-2 strain
Experimental: (§1) Compounds were dissolved in either water or DMSO and then diluted with medium to achieve the required concentrations (final DMSO concentration <1%, which is non-toxic to the parasite). […] Parasite growth was determined spectrophotometrically (OD650) by measuring the activity of the parasite lactate dehydrogenase (pLDH) according to a modification of the method of Makler in control and drug-treated cultures.
(§2) As a blank, uninfected RBCs were used for the antimalarial assays or media without cells for the cytotoxicity assays. The percent viability was plotted as a function of drug concentrations, and the curve fitting was obtained by nonlinear regression analysis using a four parameter logistic method (software Gen5 1.10 provided with the Synergy4 plate reader [Biotek]).

[4] = tested on: myelogenous leukemia cell line K562; assay: Cytotoxicity, MTT assay, K562; assay type: cell-based, human; details: for IC50: Homo sapiens, K562, MTT assay conducted for 72 h, read-out: Mean (±S.D.) IC50 K562
Experimental: (§3) Selected compounds were carried forward for screening against the immortalized myelogenous leukemia, K562, human microvascular endothelial cells (HMEC-1) and fresh human fibroblasts HDF (Table 2) using the MTT assay, as above.
(§4) A long term microvascular endothelial cell line (HMEC-1) immortalized by SV 40 large T antigen was kindly provided by Dr. Francisco J. Candal, Center for Disease Control, Atlanta, GA, USA. […] Fibroblasts from skin biopsies were maintained in DMEM (EuroClone, Pero, Italy) supplemented with 10% fetal calf serum (HyClone, Logan, UT, USA), 2 mM glutamine, 100 U/mL of penicillin and 100 µg/mL of streptomycin.
(§5) Cells were then treated with serial dilutions of test compounds and cell proliferation evaluated using the MTT assay as previously described. […] All the tests were performed in triplicate at least three times.
as §2

[5] = tested on: human microvascular endothelial cells (HMEC-1); assay: Cytotoxicity, MTT assay, HMEC-1; assay type: cell-based; details: MTT assay conducted for 72 h, read-out: Mean (±S.D.) IC50 HMEC
Experimental: as §3, §4, §5, §2

[6] = tested on: mouse fibrosarcoma cell line WEHI-164; assay: Cytotoxicity, MTT assay, WEHI-164; assay type: cell-based; details: read-out: WEHI-164 Mean ± S.D. IC50
[7] = tested on: fresh human dermal fibroblasts HDF; assay: Cytotoxicity, MTT assay, HDF; assay type: cell-based; details: Fibroblast, MTT assay conducted for 72 h, read-out: Mean (±S.D.) IC50 HDF
Experimental: as §3, §4, §5, §2

[8] = tested on: P. falciparum CQ-sensitive D10; assay: In vitro antimalarial assay (pLDH), Pf D10 strain; assay type: cell-based, Plasmodium falciparum; details: for IC50: read-out: D10 (CQ-S) Mean ± S.D. IC50; for Ratio IC50 cpd/IC50 DHA: D10 strain; for SI IC50WEHI-164/IC50 cpd: selectivity index versus D10 strain
Experimental: as §1, §2

[9] = tested on: different strains of Plasmodium falciparum (Pf); assay: In vitro antimalarial assay (pLDH), summary over different Pf strains; assay type: cell-based; details: for IC50: Plasmodium falciparum, range over D10 and W-2 strains, read-out: IC50 against different strains of Plasmodium falciparum; for selectivity index (SI) with respect to WEHI-164: WEHI-164 IC50 / antimalarial IC50, over the strains
Experimental: as §1, §2

[10] = human; cited from earlier work
[11] = design: method as in earlier work; details: 28 (artemisone), 29 (DHA); cited from earlier work
[12] = cited from earlier work
[13] = fold more active; cited from earlier work
Pf = details: fold more active; cited from earlier work
[14] = CQ-resistant strain, pLDH readout
[15] = CQ-sensitive strain, 72 h, pLDH readout
[16] = Plasmodium falciparum, CQ-resistant strain, pLDH readout
[17] = Mus musculus, WEHI-164, 72 h, MTT, 72 h
[18] = Plasmodium falciparum, D10, 72 h, CQ-sensitive strain, 72 h, pLDH readout

SMILES	IC50 [3, 14] [µM]	Ratio IC50 cpd/IC50 DHA [3]	SI IC50WEHI-164/IC50 cpd [3]	IC50 [4] [µM]	IC50 ([6]; MTT, 72 h) [µM]	IC50 [7] [µM]	IC50 [8, 15] [µM]	Ratio IC50 cpd/IC50 DHA [8]	SI IC50WEHI-164/IC50 cpd [8]	IC50 [6, 17] [µM]	IC50 [8, 18] [µM]	other results
CC1CCC2C(C)C(OC3OC(CO)C(O)C(O)C3O)OC3OC4(C)CCC1C32OO4 (stereo not drawn) [Compound 12]	–	–	–	–	–	–	–	–	–	–	–	IC50 [1]: 0.0797 µM; IC50 [2]: 0.0294 µM
CC1CCC2C(C)C(N3CCN(C4OC(CO)C(O)C4O)CC3)OC3OC4(C)CCC1C32OO4 (stereo not drawn) [Compound 24]	0.0041 ± 0.0032	2.7	119	0.87 ± 0.05	0.49 ± 0.2	389 ± 8.6	0.0048 ± 0.0029	1.4	102	–	–	IC50 [5]: 2.39 ± 1.51 µM
CC1CCC2C(C)C(N3CCN(C4OC(C)C(O)C(O)C4O)CC3)OC3OC4(C)CCC1C32OO4 (stereo not drawn) [Compound 23]	0.00074 ± 0.0003	0.49	878	1.95 ± 0.48	–	314 ± 85.6	0.00074 ± 0.00034	0.22	878	0.65 ± 0.06	< 0.001	IC50 [9]: 0.00058 to 0.00087 µM; selectivity index (SI) with respect to WEHI-164 [9]: > 195; IC50 [3, 16]: < 0.001 µM
CC1CCC2C(C)C(N3CCN(C4OC(CO)C(O)C(O)C4O)CC3)OC3OC4(C)CCC1C32OO4 (stereo not drawn) [Compound 20]	0.0044 ± 0.0023	2.9	772	–	3.4	–	0.0057 ± 0.0029	1.7	596	–	–	–
CCN(CC)CCCC(C)Nc1ccnc2cc(Cl)ccc12 (stereo not drawn) [Chloroquine, chloroquine, reference compound]	–	–	–	–	–	–	–	–	–	–	–	IC50 ([3]; Plasmodium falciparum): 0.264 ± 0.143 µM; IC50 ([6]; Mus musculus, WEHI-164, 72 h): > 10 µM; IC50 ([8]; Plasmodium falciparum, D10, 72 h): 0.0234 ± 0.0101 µM
CC1CCC2C(C)C(N3CCN(C4OC(CO)C(O)C4O)CC3)OC3OC4(C)CCC1C32OO4 (stereo not drawn) [Compound 26]	0.00082 ± 0.00025	0.55	256	–	0.21 ± 0.01	–	0.0013 ± 0.0008	0.38	161	–	–	–
CC1CCC2C(C)C(N3CCN(C4OC(CO)C(OC5OC(CO)C(O)C(O)C5O)C(O)C4O)CC3)OC3OC4(C)CCC1C32OO4 (stereo not drawn) [Compound 21]	–	1.0	166	0.78 ± 0.15	–	534 ± 9.9	–	0.56	131	0.25 ± 0.09	0.0019 ± 0.0011	IC50 [3, 16]: 0.0015 ± 0.0005 µM; IC50 [5]: 2.5 ± 0.8 µM
CC1CCC2C(C)C(N3CCNCC3)OC3OC4(C)CCC1C32OO4 (stereo not drawn) [Compound 10, 10α-(1-Piperazino)-10-deoxo-10-dihydroartemisinin]	–	0.73	136	–	–	–	–	0.41	107	0.15 ± 0.01	0.0014 ± 0.0005	IC50 [3, 16]: 0.0011 ± 0.0004 µM
CC1CCC2C(C)C(OC3OC(CO)C(O)C(O)C3O)OC3OC4(C)CCC1C32OO4 (stereo not drawn) [Compound 11]	–	–	–	–	–	–	–	–	–	–	–	IC50 [1]: 0.0763 µM; IC50 [2]: 0.272 µM
CC[C@@]1(O)C(=O)OCc2c1cc1n(c2=O)Cc2cc3ccccc3nc2-1 [Camptothecin, camptothecin, reference compound]	–	–	–	0.03 ± 0.01	–	2.62 ± 0.84	–	–	–	–	–	SI with respect to the human dermal fibroblasts (HDF) ([4]; HDF versus K562): < 100
CC1CCC2C(C)C(N3CCN(C4OC(CO)C(O)C4O)CC3)OC3OC4(C)CCC1C32OO4 (stereo not drawn) [Compound 25]	0.00058 ± 0.0003	0.39	275	–	0.16 ± 0.04	–	0.00066 ± 0.0002	0.19	242	–	–	IC50 [9]: 0.00058 to 0.00087 µM; selectivity index (SI) with respect to WEHI-164 [9]: > 195
CC1CCC2C(C)C(N3CCN(C4OC(CO)C(O)C(O)C4O)CC3)OC3OC4(C)CCC1C32OO4 (stereo not drawn) [Compound 19]	0.00071 ± 0.0002	0.5	239	–	0.17 ± 0.03	–	0.00087 ± 0.00025	0.26	195	–	–	IC50 [9]: 0.00058 to 0.00087 µM; selectivity index (SI) with respect to WEHI-164 [9]: > 195
CC1CCC2C(C)C(N3CCN(C4CC(O)C(O)C(CO)O4)CC3)OC3OC4(C)CCC1C32OO4 (stereo not drawn) [Compound 22]	–	0.73	463	–	–	–	–	0.68	222	0.51 ± 0.1	0.0023 ± 0.001	IC50 [3, 16]: 0.0011 ± 0.0004 µM
C[C@H]1[C@@H](O)O[C@@H]2O[C@@]3(C)CC[C@H]4[C@H](C)CC[C@@H]1[C@@]24OO3 [DHA 2, dihydroartemisinin, reference compound]	–	–	–	2.76 ± 0.66	–	88.7 ± 13.3	–	–	–	0.72 ± 0.14	0.0034 ± 0.0016	half-life of antimalarial activity [10]: ~ 3 h; IC50 [5]: 1.16 ± 0.4 µM; elimination half-life [11]: ~ 1 h; plasma clearance [11]: ~ 5.4 L/h/kg; volume of distribution [11]: 7.7 L/kg
C[C@@H]1CC[C@H]2[C@@H](C)C(=O)O[C@@H]3O[C@@]4(C)CC[C@@H]1[C@]32OO4 [artemisinin 1, artemisinin]	–	–	–	–	–	–	–	–	–	–	–	IC50 [1]: 0.0024 µM; IC50 [2]: 0.0104 µM
CC1CCC2C(C)C(N3CCN(C4OC(CO)C(O)C(O)C4O)CC3)OC3OC4(C)CCC1C32OO4 (stereo not drawn) [Compound 18]	0.0012 ± 0.0003	0.8	233	0.81 ± 0.24	0.28 ± 0.08	382 ± 31.2	0.0013 ± 0.0001	0.38	215	–	–	IC50 [5]: 4.41 ± 2.29 µM
C[C@H]1[C@H](N2CCS(=O)(=O)CC2)O[C@@H]2O[C@@]3(C)CC[C@H]4[C@H](C)CC[C@@H]1[C@@]24OO3 [Artemisone 7, artemisone, reference compound]	–	0.6	328	0.26 ± 0.04	–	88.3 ± 33.8	–	0.32	269	0.296 ± 0.059	0.0011 ± 0.0004	IC50 [9]: 0.0009 to 0.0011 µM; IC50 [3, 16]: 0.0009 ± 0.0004 µM; neurotoxicity in vitro and in vivo [12]: negligible neurotoxicity; activity relative to artesunate 4 in vivo [13]: at least three-fold; elimination half-life [11]: ~ 3 h; plasma clearance [11]: ~ 3.5 L/h/kg; volume of distribution [11]: 14.5 L/kg; activity relative to artesunate 4 against Pf in vitro (Pf): nine-fold
